Results as given in article PMC5218480 (PLoS ONE, 2017).

Tested on: MV-4-11 cells
Experiment: Gene expression microarray analysis (Affymetrix PrimeView) and GSEA
Assay type: cell-based, human
Parameters: RFU PODN (11730768_x_at) / Fold change /veh PODN (11730768_x_at) / RFU LINC00158 (11744669_a_at) / Fold change /veh LINC00158 (11744669_a_at) / RFU DUSP10 (11751237_a_at) / Fold change /veh DUSP10 (11751237_a_at) / RFU ID3 (11757404_x_at) / Fold change /veh ID3 (11757404_x_at) / RFU PLEKHG5 (11737974_s_at) / Fold change /veh PLEKHG5 (11737974_s_at) / RFU LRRC4B (11730491_at) / Fold change /veh LRRC4B (11730491_at) / RFU GIMAP4 (11747438_a_at) / Fold change /veh GIMAP4 (11747438_a_at) / RFU KRT8 (11758183_x_at) / Fold change /veh KRT8 (11758183_x_at) / RFU CNN1 (11734310_a_at) / Fold change /veh CNN1 (11734310_a_at) / RFU VPS37D (11726825_at) / Fold change /veh VPS37D (11726825_at) / RFU C10orf10 (11716522_x_at) / Fold change /veh C10orf10 (11716522_x_at) / RFU KIR2DL2 /// KIR2DL4 /// KIR2DL5A /// KIR2DL5B /// KIR2DS1 /// KIR2DS2 /// KIR2DS3 /// KIR2DS4 /// KIR3DL3 /// KIR3DL3 /// KIR3DS1 (11738374_at) / Fold change /veh KIR2DL2 /// KIR2DL4 /// KIR2DL5A /// KIR2DL5B /// KIR2DS1 /// KIR2DS2 /// KIR2DS3 /// KIR2DS4 /// KIR3DL3 /// KIR3DL3 /// KIR3DS1 (11738374_at) / RFU C1QL1 (11718748_at) / Fold change /veh C1QL1 (11718748_at) / RFU TMPRSS4 (11747572_a_at) / Fold change /veh TMPRSS4 (11747572_a_at) / RFU HAMP (11756126_x_at) / Fold change /veh HAMP (11756126_x_at) / RFU RNFT2 (11725882_a_at) / Fold change /veh RNFT2 (11725882_a_at) / RFU NR4A2 (11747474_a_at) / Fold change /veh NR4A2 (11747474_a_at) / RFU ABCC12 (11746883_a_at) / Fold change /veh ABCC12 (11746883_a_at) / RFU TMEM136 (11760407_x_at) / Fold change /veh TMEM136 (11760407_x_at) / RFU CLDN22 /// WWC2 (11732394_at) / Fold change /veh CLDN22 /// WWC2 (11732394_at) / RFU HLA-DPB1 (11760878_x_at) / Fold change /veh HLA-DPB1 (11760878_x_at) / RFU SPINT1 (11716480_a_at) / Fold change /veh SPINT1 (11716480_a_at) / RFU GAP43 (11754022_s_at) / Fold change /veh GAP43 (11754022_s_at) / RFU A4GNT (11735810_at) / Fold change /veh A4GNT (11735810_at) / RFU PRB3 (11715151_x_at) / Fold change /veh PRB3 (11715151_x_at) / RFU TUBB4B (11761932_at) / Fold change /veh TUBB4B (11761932_at) / RFU CAPN14 (11732068_a_at) / Fold change /veh CAPN14 (11732068_a_at) / RFU TMCC2 (11721928_a_at) / Fold change /veh TMCC2 (11721928_a_at) / RFU IRGQ (11745062_a_at) / Fold change /veh IRGQ (11745062_a_at) / RFU FAM174B (11720279_a_at) / Fold change /veh FAM174B (11720279_a_at) / RFU TMPRSS4 (11748680_a_at) / Fold change /veh TMPRSS4 (11748680_a_at) / RFU FAM212B (11763350_a_at) / Fold change /veh FAM212B (11763350_a_at) / RFU PLEKHG5 (11743358_a_at) / Fold change /veh PLEKHG5 (11743358_a_at) / RFU ZSCAN30 (11745921_a_at) / Fold change /veh ZSCAN30 (11745921_a_at) / RFU CMKLR1 (11741424_a_at) / Fold change /veh CMKLR1 (11741424_a_at) / RFU LOC101060620 /// MAPK8IP1 (11723275_at) / Fold change /veh LOC101060620 /// MAPK8IP1 (11723275_at) / RFU SPTSSB (11747773_x_at) / Fold change /veh SPTSSB (11747773_x_at) / RFU PRSS12 (11739890_at) / Fold change /veh PRSS12 (11739890_at) / RFU BIN1 (11741810_x_at) / Fold change /veh BIN1 (11741810_x_at) / RFU WNT11 (11732464_a_at) / Fold change /veh WNT11 (11732464_a_at) / RFU C10orf10 (11716521_a_at) / Fold change /veh C10orf10 (11716521_a_at) / RFU C5orf56 (11738089_at) / Fold change /veh C5orf56 (11738089_at) / RFU CYB561 (11721691_x_at) / Fold change /veh CYB561 (11721691_x_at) / RFU ANKRD19P (11752326_a_at) / Fold change /veh ANKRD19P (11752326_a_at) / RFU OR2T12 /// OR2T33 /// OR2T8 (11738714_s_at) / Fold change /veh OR2T12 /// OR2T33 /// OR2T8 (11738714_s_at) / RFU VCAN (11748164_a_at) / Fold change /veh VCAN (11748164_a_at) / RFU JSRP1 (11732532_at) / Fold change /veh JSRP1 (11732532_at) / RFU KRTAP10-11 (11738290_x_at) / Fold change /veh KRTAP10-11 (11738290_x_at) / RFU MYO3A (11730013_a_at) / Fold change /veh MYO3A (11730013_a_at) / RFU EBF3 (11725865_a_at) / Fold change /veh EBF3 (11725865_a_at) / RFU CAMK2N1 (11719241_x_at) / Fold change /veh CAMK2N1 (11719241_x_at) / RFU C5orf56 (11738088_a_at) / Fold change /veh C5orf56 (11738088_a_at) / RFU OLFML3 (11715873_a_at) / Fold change /veh OLFML3 (11715873_a_at) / RFU LOC100653217 /// NTM (11731650_a_at) / Fold change /veh LOC100653217 /// NTM (11731650_a_at) / RFU MAPK11 (11762145_a_at) / Fold change /veh MAPK11 (11762145_a_at) / RFU FIZ1 (11724087_x_at) / Fold change /veh FIZ1 (11724087_x_at) / RFU OASL (11726364_x_at) / Fold change /veh OASL (11726364_x_at) / RFU SOX15 (11748057_x_at) / Fold change /veh SOX15 (11748057_x_at) / RFU CD79A (11719716_a_at) / Fold change /veh CD79A (11719716_a_at) / RFU HIST1H1D (11736915_at) / Fold change /veh HIST1H1D (11736915_at) / RFU CASKIN2 (11723855_a_at) / Fold change /veh CASKIN2 (11723855_a_at) / RFU LOC730098 (11760151_x_at) / Fold change /veh LOC730098 (11760151_x_at) / RFU OR4N2 (11742367_at) / Fold change /veh OR4N2 (11742367_at) / RFU PRRT2 (11749266_a_at) / Fold change /veh PRRT2 (11749266_a_at) / RFU SNX32 (11753110_a_at) / Fold change /veh SNX32 (11753110_a_at) / RFU CDHR5 (11726645_a_at) / Fold change /veh CDHR5 (11726645_a_at) / RFU RCAN1 (11760418_a_at) / Fold change /veh RCAN1 (11760418_a_at) / RFU FAM167A (11723789_a_at) / Fold change /veh FAM167A (11723789_a_at) / RFU FAM26E (11764081_at) / Fold change /veh FAM26E (11764081_at) / RFU ISYNA1 (11749810_s_at) / Fold change /veh ISYNA1 (11749810_s_at) / RFU ACY1 (11761880_at) / Fold change /veh ACY1 (11761880_at) / RFU 11764098_at / Fold change /veh 11764098_at / RFU SAMD14 (11745864_x_at) / Fold change /veh SAMD14 (11745864_x_at) / RFU NPB (11741838_a_at) / Fold change /veh NPB (11741838_a_at) / RFU TMPRSS6 (11731388_a_at) / Fold change /veh TMPRSS6 (11731388_a_at) / RFU KRTAP10-2 (11738614_at) / Fold change /veh KRTAP10-2 (11738614_at) / RFU ARHGAP8 /// PRR5-ARHGAP8 (11727945_x_at) / Fold change /veh ARHGAP8 /// PRR5-ARHGAP8 (11727945_x_at) / RFU KRTAP5-7 /// NADSYN1 (11734609_at) / Fold change /veh KRTAP5-7 /// NADSYN1 (11734609_at) / RFU RASL12 (11751679_a_at) / Fold change /veh RASL12 (11751679_a_at) / RFU CDKN2B (11736163_a_at) / Fold change /veh CDKN2B (11736163_a_at) / RFU PRF1 (11729649_at) / Fold change /veh PRF1 (11729649_at) / RFU, ZNF638 /// ZNF638-IT1 / Fold change vs veh, ZNF638 /// ZNF638-IT1 / RFU, PANK3 / Fold change vs veh, PANK3 / RFU, SH3YL1 / Fold change vs veh, SH3YL1 / RFU, ZEB2 / Fold change vs veh, ZEB2 / RFU, NRIP1 / Fold change vs veh, NRIP1 / RFU, PTTG1IP / Fold change vs veh, PTTG1IP / RFU, CAPN2 / Fold change vs veh, CAPN2 / RFU, MED14 / Fold change vs veh, MED14 / RFU, SNORA58 / Fold change vs veh, SNORA58 / RFU, C1orf63 / Fold change vs veh, C1orf63 / RFU, LRRFIP1 / Fold change vs veh, LRRFIP1 / RFU, NDUFAF7 / Fold change vs veh, NDUFAF7 / RFU, SLC12A2 / Fold change vs veh, SLC12A2 / RFU, IBTK / Fold change vs veh, IBTK / RFU, ESF1 / Fold change vs veh, ESF1 / Fold change vs veh, TMEM50B / RFU, TAOK1 / Fold change vs veh, TAOK1 / RFU, ACBD3 / Fold change vs veh, ACBD3 / RFU, TMA16 / Fold change vs veh, TMA16 / RFU, RWDD3 / Fold change vs veh, RWDD3 / RFU, BCAT1 / Fold change vs veh, BCAT1 / RFU, EDEM3 / Fold change vs veh, EDEM3 / RFU, TMEM33 / Fold change vs veh, TMEM33 / RFU, WDR75 / Fold change vs veh, WDR75 / RFU, AHCTF1 / Fold change vs veh, AHCTF1 / RFU, TFRC / Fold change vs veh, TFRC / RFU, ZDHHC17 / Fold change vs veh, ZDHHC17 / RFU, NOM1 / Fold change vs veh, NOM1 / RFU, ARL8B / Fold change vs veh, ARL8B / RFU, ZBTB11 / Fold change vs veh, ZBTB11 / RFU, TAMM41 / Fold change vs veh, TAMM41 / RFU, KIAA1704 /// LOC100996395 / Fold change vs veh, KIAA1704 /// LOC100996395 / RFU, ING1 / Fold change vs veh, ING1 / RFU, TRMT61B / Fold change vs veh, TRMT61B / RFU, FUBP3 / Fold change vs veh, FUBP3 / RFU, TP53 / Fold change vs veh, TP53 / RFU, TNKS2 / Fold change vs veh, TNKS2 / RFU, ZFP14 / Fold change vs veh, ZFP14 / RFU, ACTR2 / Fold change vs veh, ACTR2 / RFU, PPP3R1 / Fold change vs veh, PPP3R1 / RFU, PIK3R1 / Fold change vs veh, PIK3R1 / RFU, HNRNPA1 / Fold change vs veh, HNRNPA1 / RFU, RNF170 / Fold change vs veh, RNF170 / RFU, ZNF28 / Fold change vs veh, ZNF28 / RFU, RNGTT / Fold change vs veh, RNGTT / RFU, OGT / Fold change vs veh, OGT / RFU, BRD1 / Fold change vs veh, BRD1 / RFU, MARS / Fold change vs veh, MARS / RFU, ZNF655 / Fold change vs veh, ZNF655 / RFU, FAHD1 / Fold change vs veh, FAHD1 / RFU, BDP1 / Fold change vs veh, BDP1 / RFU, LRRCC1 / Fold change vs veh, LRRCC1 / RFU, ARID1A / Fold change vs veh, ARID1A / RFU, ZNF146 / Fold change vs veh, ZNF146 / RFU, ZNF330 / Fold change vs veh, ZNF330 / RFU, GPN3 / Fold change vs veh, GPN3 / RFU, C9orf123 / Fold change vs veh, C9orf123 / RFU, N4BP2L2 / Fold change vs veh, N4BP2L2 / RFU, ARFIP1 / Fold change vs veh, ARFIP1 / RFU, FAM179B / Fold change vs veh, FAM179B / RFU, BCL10 / Fold change vs veh, BCL10 / RFU, UHRF1BP1L / Fold change vs veh, UHRF1BP1L / RFU, BET1 / Fold change vs veh, BET1 / RFU, CNOT2 / Fold change vs veh, CNOT2 / RFU, ZNF268 / Fold change vs veh, ZNF268 / Fold change vs veh, ZNF507 / RFU, DGCR2 / Fold change vs veh, DGCR2 / RFU, WDSUB1 / Fold change vs veh, WDSUB1 / Fold change vs veh, HSP90B1 /// MIR3652 / RFU, ADSS / Fold change vs veh, ADSS / RFU, GK / Fold change vs veh, GK / RFU, ZNF148 / Fold change vs veh, ZNF148 / RFU, TAF9 / Fold change vs veh, TAF9 / RFU, SLC1A5 / Fold change vs veh, SLC1A5 / RFU, SLMO2 / Fold change vs veh, SLMO2 / RFU, ABCC4 / Fold change vs veh, ABCC4 / RFU, LOC101060439 /// RAP1B / Fold change vs veh, LOC101060439 /// RAP1B / RFU, RFX7 / Fold change vs veh, RFX7 / RFU, GTPBP10 / Fold change vs veh, GTPBP10 / RFU, CNEP1R1 / Fold change vs veh, CNEP1R1 / RFU, BIVM-ERCC5 /// ERCC5 / Fold change vs veh, BIVM-ERCC5 /// ERCC5 / RFU, ILF3 / Fold change vs veh, ILF3 / RFU 11762660_at / Fold change /veh 11762660_at / RFU VCAN (11757783_s_at) / Fold change /veh VCAN (11757783_s_at) / RFU DDX43 (11728927_at) / Fold change /veh DDX43 (11728927_at) / RFU KRT8 (11758188_x_at) / Fold change /veh KRT8 (11758188_x_at) / RFU NKD1 (11759106_at) / Fold change /veh NKD1 (11759106_at) / RFU SRD5A1 (11742802_a_at) / Fold change /veh SRD5A1 (11742802_a_at) / RFU TPSAB1 /// TPSB2 (11721975_s_at) / Fold change /veh TPSAB1 /// TPSB2 (11721975_s_at) / RFU GSTM3 (11746129_a_at) / Fold change /veh GSTM3 (11746129_a_at) / RFU IL23R (11737362_x_at) / Fold change /veh IL23R (11737362_x_at) / RFU TMEM51 (11727254_a_at) / Fold change /veh TMEM51 (11727254_a_at) / RFU PIWIL2 (11732686_x_at) / Fold change /veh PIWIL2 (11732686_x_at) / RFU ORM1 (11744905_x_at) / Fold change /veh ORM1 (11744905_x_at) / RFU CCDC152 (11743942_at) / Fold change /veh CCDC152 (11743942_at) / RFU ECM1 (11717891_a_at) / Fold change /veh ECM1 (11717891_a_at) / RFU IL23R (11748794_a_at) / Fold change /veh IL23R (11748794_a_at) / RFU TNFAIP8L3 (11732012_x_at) / Fold change /veh TNFAIP8L3 (11732012_x_at) / RFU MBOAT4 (11741988_at) / Fold change /veh MBOAT4 (11741988_at) / RFU 11764193_at / Fold change /veh 11764193_at / RFU TMEM53 (11763286_at) / Fold change /veh TMEM53 (11763286_at) / RFU MAGEB2 (11727129_at) / Fold change /veh MAGEB2 (11727129_at) / RFU TMEM200A (11744735_a_at) / Fold change /veh TMEM200A (11744735_a_at) / RFU CCDC152 (11751479_a_at) / Fold change /veh CCDC152 (11751479_a_at) / RFU FAM211A (11726209_a_at) / Fold change /veh FAM211A (11726209_a_at) / RFU RGS16 (11746705_a_at) / Fold change /veh RGS16 (11746705_a_at) / RFU VCAN (11755009_s_at) / Fold change /veh VCAN (11755009_s_at) / RFU RHOB (11743442_s_at) / Fold change /veh RHOB (11743442_s_at) / RFU RGS16 (11720943_a_at) / Fold change /veh RGS16 (11720943_a_at) / RFU RGS16 (11720944_at) / Fold change /veh RGS16 (11720944_at) / RFU, VPS4B / Fold change vs veh, VPS4B / RFU, CREB1 / Fold change vs veh, CREB1 / RFU, DNAJC13 / Fold change vs veh, DNAJC13 / RFU, GNAQ / Fold change vs veh, GNAQ / RFU, CDK5R1 / Fold change vs veh, CDK5R1 / RFU, ZRANB3 / Fold change vs veh, ZRANB3 / RFU, CUL4A / Fold change vs veh, CUL4A / RFU, CCNY / Fold change vs veh, CCNY / RFU, UFL1 / Fold change vs veh, UFL1 / RFU, COG3 / Fold change vs veh, COG3 / RFU, DIAPH2 / Fold change vs veh, DIAPH2 / RFU, SKA2 / Fold change vs veh, SKA2 / RFU, AFF3 / Fold change vs veh, AFF3 / RFU, LMF1 / Fold change vs veh, LMF1 / RFU, IPO11 / Fold change vs veh, IPO11 / RFU, DFFB / Fold change vs veh, DFFB / RFU, FOXP1 / Fold change vs veh, FOXP1 / RFU, CARD8 / Fold change vs veh, CARD8 / RFU, STRN3 / Fold change vs veh, STRN3 / RFU, ADK / Fold change vs veh, ADK / RFU, RASSF2 / Fold change vs veh, RASSF2 / RFU, WIPF1 / Fold change vs veh, WIPF1 / RFU, LARP1B / Fold change vs veh, LARP1B / RFU, RASA1 / Fold change vs veh, RASA1 / RFU, RB1 / Fold change vs veh, RB1 / RFU, PPFIA1 / Fold change vs veh, PPFIA1 / RFU, MAT2A / Fold change vs veh, MAT2A / RFU, CCT5 / Fold change vs veh, CCT5 / RFU, WDR92 / Fold change vs veh, WDR92 / RFU, CUX1 / Fold change vs veh, CUX1 / RFU, TTC7A / Fold change vs veh, TTC7A / RFU, TMEM135 / Fold change vs veh, TMEM135 / RFU, DEPTOR / Fold change vs veh, DEPTOR / RFU, CPM / Fold change vs veh, CPM / RFU, DNAJB6 / Fold change vs veh, DNAJB6 / RFU, CACNA2D3 / Fold change vs veh, CACNA2D3 / RFU, DTX4 / Fold change vs veh, DTX4 / RFU, TFCP2 / Fold change vs veh, TFCP2 / RFU, GMCL1 /// GMCL1P1 / Fold change vs veh, GMCL1 /// GMCL1P1 / RFU, AEBP2 / Fold change vs veh, AEBP2 / RFU, SNHG1 /// SNORD22 /// SNORD25 /// SNORD26 /// SNORD27 /// SNORD28 /// SNORD29 /// SNORD31 / Fold change vs veh, SNHG1 /// SNORD22 /// SNORD25 /// SNORD26 /// SNORD27 /// SNORD28 /// SNORD29 /// SNORD31 / Fold change (Aza/veh), C12orf56 (ProbeSet 11735607_a_at) / Fold change (ACY-1035/veh), C12orf56 (ProbeSet 11735607_a_at) / Fold change (Aza/veh), FGFR1OP (ProbeSet 11751329_s_at) / Fold change (ACY-1035/veh), FGFR1OP (ProbeSet 11751329_s_at) / Fold change (Aza/veh), VPS36 (ProbeSet 11739960_a_at) / Fold change (ACY-1035/veh), VPS36 (ProbeSet 11739960_a_at) / RFU SYPL1 (11715823_x_at) / Fold change /veh SYPL1 (11715823_x_at) / RFU IGFBP7 (11715501_s_at) / Fold change /veh IGFBP7 (11715501_s_at) / RFU REEP3 (11722064_at) / Fold change /veh REEP3 (11722064_at) / RFU IGLL1 (11728026_x_at) / Fold change /veh IGLL1 (11728026_x_at): dose or concentration left out as unconfirmed
Settings: ProbeSet 11741311_a_at; LIST B

Nc1ccc(-c2cccs2)cc1NC(=O)c1ccc2c(c1)cc(C1CC1)n2CCN1CCOCC1 [ACY-1035]
Fold change vs veh, ZNF655: 0.99
